Laboratory results published in article PMC5104426, “Screening a Phage Display Library for Two Novel OmpU-Binding Peptides with Adhesion Antagonistic Activity against Vibrio mimicus” (PLoS ONE, 2016).

Tests used:
grass carps = experiment: Acute toxicity to grass carps; assay type: in vivo, Ctenopharyngodon idella; settings: 100 mg/kg i.p., six fish per group; for survival in the 7-day study period: 7 days
Method: Healthy grass carps weighting 50–52 g were purchased from a commercial fish farm in Anhui province of China, and then were maintained in a flow-through water system at a temperature of 25 ± 1°C and fed commercial pellets on a daily basis. After 14 days when grass carps were confirmed to be healthy, the water temperature was increased to 28 ± 1°C slowly, and the experiment began.
For acute toxicity detection, synthetic P1, P2 and unrelated control peptide was dissolved in sterile deionized water, respectively, and given to grass carps by intraperitoneal (i.p.) injection at a dose of 100 mg/kg, six fish per group. The number of fish surviving in each group was monitored for up to a period of 7 days after injection. At the end of the experiments, all surviving fish were euthanized in a solution of 200 mg/L of MS-222 followed by a blow to the head.

[1] = test system: rOmpU fusion protein adhesion to EPC cells; experiment: Fluorescence-based adhesion assay: rOmpU protein adhesion to EPC cells; assay type: cell-based, Vibrio mimicus; settings: 500 μg/mL peptide mixed with equal volume of 500 μg/mL rOmpU, 1 h 28°C, then 1 h on fixed EPC cells; anti-OmpU/FITC immunofluorescence; triplicate
Method: Synthetic OmpU-binding peptides were measure for their ability to antagonize OmpU protein adhesion to EPC cells by fluorescence-based adhesion assay. Briefly, EPC cells (1 × 10^6 cells/mL) were seeded in 24-well cell plate containing coverslip (Corning, NY, USA) and cultured to 80% confluence. The cells were gently washed 3 times with PBS and fixed with 4% paraformaldehyde at room temperature for 15 min. After 3 washes with PBS, cells were permeabilized with 0.5% Triton X-100 (500 μL/well) for 15 min. The cells were then washed 3 times with PBS and blocked with 2% BSA for 30 min. Subsequently, 500 μg/mL of each OmpU-binding peptide or irrelevant control peptide (used as negative control) solution were respectively mixed with an equal volume of 500 μg/mL rOmpU fusion protein, and the mixture was incubated for 1 h at 28°C and added to each well. The plates were incubated for 1 h at 28°C. After 3 washes, purified rabbit anti-OmpU antibody (prepared in our previous studies) at a dilution of 1:200 in PBS was added to each well and incubated for 1 h at 28°C, followed by 3 washes in PBS. A 1:100 dilution of FITC (fluorescein isothiocyanate)-labeled goat anti-rabbit IgG (Jackson ImmunoResearch Laboratories, Inc., USA) was added to each well and incubated in the dark for 1 h. After 3 washes in PBS, 4,6-Diamidino-2-phenylindole dihydrochloride (DAPI; Ziyi Reagent Co., Shanghai, China) was used to stain the nucleus, and the coverslips were observed under a fluorescence microscope. Each experiment was performed in triplicate, each sample being tested in three wells.

rOmpU fusion protein = experiment: Solid phase non-competitive ELISA (Beatty method), affinity constant; assay type: binding, Vibrio mimicus; settings: for affinity constant: peptide coated 2.5-40 μg/mL, rOmpU 0.2-12.8 μg/mL, modified Beatty formula, triplicate, mean ± SD, SD; for AAP concentration at 50% OD492nm: from fitted curve equation
Method: To determine the binding affinity of interactions between adhesion antagonistic peptide and rOmpU fusion protein, solid phase non-competitive ELISA method (also known as the Beatty method) was used to measure the affinity constant of adhesion antagonistic peptide. Briefly, adhesion antagonistic peptides were diluted to 40 μg/mL, 20 μg/mL, 10 μg/mL, 5 μg/mL and 2.5 μg/mL, respectively, and laterally coated onto plate wells (100 μL/well) at 4°C overnight. Next day, each well was blocked with 5% BSA at 37°C for 2 h, and then washed 6 times with TBST. Subsequently, rOmpU fusion protein were diluted to 12.8 μg/mL, 3.2 μg/mL, 0.8 μg/mL and 0.2 μg/mL, respectively, and longitudinally added to coated wells (100 μL/well), and the plates were incubated for 2 h at 37°C. After thorough washing, rabbit anti-rOmpU protein antibody, HRP labeled goat anti-rabbit IgG and substrate solution was added in turn, each step was preceded by 6 washes in TBST. OD492 nm values were finally determined. With OD492nm values as the ordinate and adhesion antagonistic peptide concentration as the abscissa, the binding reaction curves between adhesion antagonistic peptide and rOmpU fusion protein at different concentrations were plotted. MATLAB version 7.0 was used to fitting the binding response curve, and to derive the curve equation. From the equation, the corresponding adhesion antagonistic peptide concentration at 50% OD492nm value in the curve was obtained. The affinity constant K was calculated using a modified version of the Beatty formula [affinity constant (K) = (n—1) / 2 (nAb'total- Abtotal)] [11]. Ab'total and Abtotal in the formula represent respectively the corresponding adhesion antagonistic peptide concentration at 50% OD492nm value in the binding response curve when the concentration of rOmpU protein was P' and P; n represents P/P'. This assay was performed in triplicate.

Row | Sequence | immediate adverse events (enervation or feed intake reduction) (grass carps) | survival in the 7-day study period (grass carps) | green fluorescence on the surface of EPC cells (surface-retained rOmpU) [1] | affinity constant (rOmpU fusion protein) | AAP concentration at 50% OD492nm (rOmpU fusion protein; rOmpU concentration 0.2 μg/mL) | AAP concentration at 50% OD492nm (rOmpU fusion protein; rOmpU concentration 0.8 μg/mL) | AAP concentration at 50% OD492nm (rOmpU fusion protein; rOmpU concentration 3.2 μg/mL) | AAP concentration at 50% OD492nm (rOmpU fusion protein; rOmpU concentration 12.8 μg/mL)
1 | SCTSPHCFMWLP [P2, adhesion antagonistic peptide] | no immediate adverse events | all the treated fish survived | little or no green fluorescence | (1.24 ± 0.56) × 10^9 L/mol | 0.70 µg/mL | 0.57 µg/mL | 0.56 µg/mL | 0.55 µg/mL
2 | TWTCSDVICTAR [P1, adhesion antagonistic peptide] | no immediate adverse events | all the treated fish survived | little or no green fluorescence | (6.17 ± 0.19) × 10^8 L/mol | 1.12 µg/mL | 1.05 µg/mL | 0.98 µg/mL | 0.86 µg/mL
